The target in this experiment is T1, MALT1 (Homo sapiens, UniProt Q9UDY8).
T1 sequence (Q9UDY8 1-824): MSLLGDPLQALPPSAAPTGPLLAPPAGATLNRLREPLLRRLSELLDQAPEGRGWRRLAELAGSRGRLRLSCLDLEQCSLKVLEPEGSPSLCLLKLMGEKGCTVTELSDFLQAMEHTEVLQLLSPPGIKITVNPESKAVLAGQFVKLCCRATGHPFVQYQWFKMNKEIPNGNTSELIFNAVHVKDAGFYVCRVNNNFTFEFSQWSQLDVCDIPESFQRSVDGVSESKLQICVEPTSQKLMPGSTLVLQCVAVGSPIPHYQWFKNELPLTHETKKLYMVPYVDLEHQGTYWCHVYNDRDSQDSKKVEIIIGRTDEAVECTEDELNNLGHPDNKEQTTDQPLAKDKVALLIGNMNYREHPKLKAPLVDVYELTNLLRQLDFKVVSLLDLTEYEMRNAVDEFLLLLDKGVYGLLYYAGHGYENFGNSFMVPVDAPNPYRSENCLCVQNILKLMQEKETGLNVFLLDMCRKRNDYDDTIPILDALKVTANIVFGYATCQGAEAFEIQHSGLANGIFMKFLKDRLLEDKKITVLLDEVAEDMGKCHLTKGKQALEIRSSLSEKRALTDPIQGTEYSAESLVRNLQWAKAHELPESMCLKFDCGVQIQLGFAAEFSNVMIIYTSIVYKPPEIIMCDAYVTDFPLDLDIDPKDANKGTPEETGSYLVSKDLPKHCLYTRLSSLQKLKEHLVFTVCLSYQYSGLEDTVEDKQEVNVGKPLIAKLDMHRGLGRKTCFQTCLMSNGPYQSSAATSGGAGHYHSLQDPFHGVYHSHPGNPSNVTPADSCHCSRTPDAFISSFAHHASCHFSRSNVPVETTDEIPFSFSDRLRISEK
In words: MALT1 degradation assay (Western blot) in OCI-Ly3 cells. In kind it is cell-based. Further details: endogenous in cells; host or cells: OCI-Ly3. The conditions noted are these: 48 hours, normalized to Actin, relative to vehicle treated cells. The protocol: In the experiments, OCI-Ly3 cells were grown for 6 hours in the presence of the indicated concentrations of Examples 1-6, 9, and 10. Proteins were extracted, analyzed by Western blot, and membranes were immunoblotted for MALT1, CRBN, and Actin. Table 3 provides the results of experimental data obtained from the example compounds of the present disclosure. In particular, OCI-Ly3 cells were grown for 48 hours in the presence of the indicated concentrations of Examples 1-19. Proteins were extracted, analyzed by Western blot, and membranes were immunoblotted for MALT1, CRBN, and Actin. Western blot bands were quantified using Image Lab software. Results were normalized to Actin expression and presented as % MALT1 degradation relative to vehicle treated cells.
(A western blot detects proteins with antibodies after separation by electrophoresis.)

The mark [1] stands for this setting: read-out: % MALT1 Degradation at 1 μM.

Read-outs that look alike come from different tables or passages of the source. Bounds are passed on as bounds.

The text below walks through data of US10689366B2, “Compounds for MALT1 degredation” (Cornell University, priority 2016, dated 2020).

With `CO[C@@H](C)c1c(NC(=O)Nc2cnc(-n3cc(CNC(=O)CCOCCOCCOCCOCCNc4cccc5c4C(=O)N(C4CCC(=O)NC4=O)C5=O)cn3)c(Cl)c2)cnc2cc(Cl)nn12` (stereo partly drawn) [Example 2, N-((1-(3-Chloro-5-(3-(2-chloro-7-((S)-1-methoxyethyl)pyrazolo[1,5-a]pyrimidin-6-yl)ureido)pyridin-2-yl)-1H-pyrazol-4-yl)methyl)-1-((2-(2,6-dioxopiperidin-3-yl)-1,3-dioxoisoindolin-4-yl)amino)-3,6,9,12-tetraoxapentadecan-15-amide], the % MALT1 degradation at 1 µM under setting [1] was over 50%.

As for `CO[C@@H](C)c1c(NC(=O)Nc2cc(Cl)cnc2OCCNC(=O)CCOCCOCCOCCOCCNc2cccc3c2C(=O)N(C2CCC(=O)NC2=O)C3=O)cnc2cc(Cl)nn12` (stereo partly drawn) [Example 3, N-(2-((5-Chloro-3-(3-(2-chloro-7-((S)-1-methoxyethyl)pyrazolo[1,5-a]pyrimidin-6-yl)ureido)pyridin-2-yl)oxy)ethyl)-1-((2-(2,6-dioxopiperidin-3-yl)-1,3-dioxoisoindolin-4-yl)amino)-3,6,9,12-tetraoxapentadecan-15-amide], the % MALT1 degradation at 1 µM under setting [1] is over 50%. For the molecule `C[C@@H](c1c(NC(=O)Nc2cnc(-n3nccn3)c(Cl)c2)cnc2cc(Cl)nn12)N(C)C(=O)CCOCCOCCNc1cccc2c1CN(C1CCC(=O)NC1=O)C2=O` (stereo partly drawn) [Example 4, N—((S)-1-(2-Chloro-6-(3-(5-chloro-6-(2H-1,2,3-triazol-2-yl)pyridin-3-yl)ureido)pyrazolo[1,5-a]pyrimidin-7-yl)ethyl)-3-(2-(2-((2-(2,6-dioxopiperidin-3-yl)-1-oxoisoindolin-4-yl)amino)ethoxy)ethoxy)-N-methylpropanamide], the % MALT1 degradation at 1 µM under setting [1] is 31 to 50%. The same measure, in the same setting: as for `CO[C@@H](C)c1c(NC(=O)Nc2cnc(-n3cc(CNC(=O)CCOCCOCCNc4cccc5c4CN(C4CCC(=O)NC4=O)C5=O)cn3)c(Cl)c2)cnc2cc(Cl)nn12` (stereo partly drawn) [Example 5, N-((1-(3-Chloro-5-(3-(2-chloro-7-((S)-1-methoxyethyl)pyrazolo[1,5-a]pyrimidin-6-yl)ureido)pyridin-2-yl)-1H-pyrazol-4-yl)methyl)-3-(2-(2-((2-(2,6-dioxopiperidin-3-yl)-1-oxoisoindolin-4-yl)amino)ethoxy)ethoxy)propanamide], the figure is 10 to 30%; as for `CO[C@@H](C)c1c(NC(=O)Nc2cc(Cl)cnc2OCCNC(=O)CCOCCOCCNc2cccc3c2CN(C2CCC(=O)NC2=O)C3=O)cnc2cc(Cl)nn12` (stereo partly drawn) [Example 6, N-(2-((5-Chloro-3-(3-(2-chloro-7-((S)-1-methoxyethyl)pyrazolo[1,5-a]pyrimidin-6-yl)ureido)pyridin-2-yl)oxy)ethyl)-3-(2-(2-((2-(2,6-dioxopiperidin-3-yl)-1-oxoisoindolin-4-yl)amino)ethoxy)ethoxy)propanamide], over 50%; as for `CC(C)c1c(NC(=O)Nc2cnc(-n3cc(CNC(=O)CCOCCOCCNc4cccc5c4CN(C4CCC(=O)NC4=O)C5=O)cn3)c(Cl)c2)cnc2cc(Cl)nn12` (stereo not shown) [Example 7, N-((1-(3-Chloro-5-(3-(2-chloro-7-isopropylpyrazolo[1,5-a]pyrimidin-6-yl)ureido)pyridin-2-yl)-1H-pyrazol-4-yl)methyl)-3-(2-(2-((2-(2,6-dioxopiperidin-3-yl)-1-oxoisoindolin-4-yl)amino)ethoxy)ethoxy)propanamide], 31 to 50%. Still for that read-out and setting: as for `Cc1c(NC(=O)Nc2cnc(-n3cc(CNC(=O)CCOCCOCCNc4cccc5c4CN(C4CCC(=O)NC4=O)C5=O)cn3)c(Cl)c2)cnc2ccc(Br)cc12` (stereo not shown) [Example 8, N-((1-(5-(3-(6-Bromo-4-methylquinolin-3-yl)ureido)-3-chloropyridin-2-yl)-1H-pyrazol-4-yl)methyl)-3-(2-(2-((2-(2,6-dioxopiperidin-3-yl)-1-oxoisoindolin-4-yl)amino)ethoxy)ethoxy)propanamide], the figure is 31 to 50%. With `CO[C@@H](C)c1c(NC(=O)Nc2cc(Cl)cnc2OCCNC(=O)CCOCCOCCOCCOCCC(=O)N[C@H](C(=O)N2C[C@H](O)CC2C(=O)NCc2ccc(-c3scnc3C)cc2)C(C)(C)C)cnc2cc(Cl)nn12` (stereo partly drawn) [Example 9, N^1-(2-((5-Chloro-3-(3-(2-chloro-7-((S)-1-methoxyethyl)pyrazolo[1,5-a]pyrimidin-6-yl)ureido)pyridin-2-yl)oxy)ethyl)-N^16-((2S)-1-((4R)-4-hydroxy-2-((4-(4-methylthiazol-5-yl)benzyl)carbamoyl)pyrrolidin-1-yl)-3,3-dimethyl-1-oxobutan-2-yl)-4,7,10,13-tetraoxahexadecanediamide], under setting [1], the % MALT1 degradation at 1 µM is 10 to 30%. On to `CO[C@@H](C)c1c(NC(=O)Nc2cnc(-n3cc(CNC(=O)CCOCCOCCOCCOCCC(=O)N[C@H](C(=O)N4C[C@H](O)CC4C(=O)NCc4ccc(-c5scnc5C)cc4)C(C)(C)C)cn3)c(Cl)c2)cnc2cc(Cl)nn12` (stereo partly shown) [Example 10], for which the “% MALT1 degradation at 1 µM” value is listed as “no degradation”. For the molecule `CO[C@@H](C)c1c(NC(=O)Nc2cc(Cl)cnc2OCCNC(=O)CCOCCOCCOCCOCCNc2cccc3c2CN(C2CCC(=O)NC2=O)C3=O)cnc2cc(Cl)nn12` (stereo partly drawn) [Example 11, N-(2-((5-Chloro-3-(3-(2-chloro-7-((S)-1-methoxyethyl)pyrazolo[1,5-a]pyrimidin-6-yl)ureido)pyridin-2-yl)oxy)ethyl)-1-((2-(2,6-dioxopiperidin-3-yl)-1-oxoisoindolin-4-yl)amino)-3,6,9,12-tetraoxapentadecan-15-amide], under setting [1], the % MALT1 degradation at 1 µM is over 50%.

As for `CO[C@@H](C)c1c(NC(=O)Nc2cc(Cl)cnc2OCCNC(=O)CCOCCNc2cccc3c2CN(C2CCC(=O)NC2=O)C3=O)cnc2cc(Cl)nn12` (stereo partly drawn) [Example 12, N-(2-((5-Chloro-3-(3-(2-chloro-7-((S)-1-methoxyethyl)pyrazolo[1,5-a]pyrimidin-6-yl)ureido)pyridin-2-yl)oxy)ethyl)-3-(2-((2-(2,6-dioxopiperidin-3-yl)-1-oxoisoindolin-4-yl)amino)ethoxy)piopanamide], the % MALT1 degradation at 1 µM under setting [1] lay in the range of 31 to 50%.

With `CO[C@@H](C)c1c(NC(=O)Nc2cc(Cl)cnc2OCCNC(=O)CCOCCOCCNc2cccc3c2C(=O)N(C2CCC(=O)NC2=O)C3=O)cnc2cc(Cl)nn12` (stereo partly drawn) [Example 14, N-(2-((5-Chloro-3-(3-(2-chloro-7-((S)-1-methoxyethyl)pyrazolo[1,5-a]pyrimidin-6-yl)ureido)pyridin-2-yl)oxy)ethyl)-3-(2-(2-((2-(2,6-dioxopiperidin-3-yl)-1,3-dioxoisoindolin-4-yl)amino)ethoxy)ethoxy)propanamide], the % MALT1 degradation at 1 µM under setting [1] is over 50%. For the molecule `CO[C@@H](C)c1c(NC(=O)Nc2cc(Cl)cnc2OCCNC(=O)CCOCCOCCOCCOCCOCCOCCNc2cccc3c2C(=O)N(C2CCC(=O)NC2=O)C3=O)cnc2cc(Cl)nn12` (stereo partly drawn) [Example 15, N-(2-((5-Chloro-3-(3-(2-chloro-7-((S)-1-methoxyethyl)pyrazolo[1,5-a]pyrimidin-6-yl)ureido)pyridin-2-yl)oxy)ethyl)-1-((2-(2,6-dioxopiperidin-3-yl)-1,3-dioxoisoindolin-4-yl)amino)-3,6,9,12,15,18-hexaoxahenicosan-21-amide], under setting [1], the % MALT1 degradation at 1 µM is over 50%.
